The test system of test [1] is COVID-19. Particulars: cited from earlier work.
Test [2] addresses SARS-CoV-2 M^pro (Severe acute respiratory syndrome coronavirus 2, UniProt P0DTD1). Put plainly: FRET-based kinetic assay of M^pro inhibition. It is filed as biochemical.

The text below walks through data of paper PMC7605328 (ACS Medicinal Chemistry Letters, 2020).

The structures appear in SMILES notation.

For the molecule `Cc1cccc(C)c1OCC(=O)N[C@@H](Cc1ccccc1)[C@@H](O)C[C@H](Cc1ccccc1)NC(=O)[C@H](C(C)C)N1CCCNC1=O` [lopinavir], the “benefits against COVID-19 in clinical trials” value in test [1] (clinical trials, no reference given) is on record as “neither lopinavir nor the lopinavir/ritonavir combination has thus far shown any significant benefits”.
For `Cc1c(O)cccc1C(=O)N[C@@H](CSc1ccccc1)[C@H](O)CN1C[C@H]2CCCC[C@H]2C[C@H]1C(=O)NC(C)(C)C` [nelfinavir], the IC50 (commonly the point on the concentration scale where inhibition reaches its midpoint) in test [2] lay within 250 to 600 µM.
For the molecule `CCC(CC)COC(=O)[C@H](C)N[P@](=O)(OC[C@H]1O[C@@](C#N)(c2ccc3c(N)ncnn23)[C@H](O)[C@@H]1O)Oc1ccccc1` [remdesivir], the clinical benefit entry in test [1] (adult patients hospitalized for severe COVID-19) was “no statistically significant clinical benefits”. Further, the “time to clinical improvement” value in test [1] (in comparison to the placebo-control group) is “faster time to clinical improvement”.
